“Also recorded” adds a separate entry of the source. Where two headings read alike, the source gives them in different places.
What was measured:
LM(TK-) cells = test: Tritium assay in LM(TK-) cells; assay type: cell-based; conditions: L-M(TK-), read-out: IC50 tritium assay
Method: (§1) Stock solutions of drugs were prepared in absolute ethanol. L1210 cells were suspended in fisher's medium, LM and LM (TK-) cells were suspended in minimum essential medium to give a final density of 11.24×10^6 cells/mL. Aliquots ([…]) of the cell suspension were placed in ependorf tubes, followed by addition of 5 mL of drug solution and incubated at 37° C. for 2 hours. Tritium release reaction was started by the addition of […] of serum free media containing 1 mCi [5-^3H]dCyt in a 0.5 mM dCyt solution. Allowed reaction to incubate for 60 min in a shaking water bath at 37° C. Reaction was terminated by transferring 100 mL of the reaction mixture to ependorf tubes containing 100 mL of a 20% mixture of activated charcoal suspension in 4% aqueous perchloric acid. Tubes were vigorously vortexed, then centrifuged in a microfuge. Radioactivity of […] of the supernatant was measured using a scintillation spectrometer. The data were analyzed by sigmoidal curve fit of CMP vs. Log (drug concentration) and the results expressed as the IC50 (the drug concentration that inhibits cell growth to 50% of control value).

L1210 cells = test: Tritium assay in L1210 cells; assay type: cell-based; conditions: Mus musculus
Method: as §1

LM cells = test: Tritium assay in LM cells; assay type: cell-based; conditions: read-out: IC50 tritium assay
Method: as §1

L1210 leukemia cells = test: Growth inhibition in L1210 mouse leukemia cells; assay type: cell-based
Method: In an alternate embodiment of the invention, the analogous thymidine compounds were prepared (i.e., 3 where F═CH3). The thymidine phosphoramidate was activated by reduction of the nitrofuryl group with sodium dithionite in aqueous buffer/acetonitrile at 37° C., and the reaction was monitored by ^31P nmr. Within ten minutes the resonance for the phosphoramidate anion had disappeared and a new peak corresponding to thymidine-5′-phosphate appeared as the exclusive phosphorus-containing product by ^31P nmr. Nucleoside phosphoramidate 3 was then evaluated for its ability to inhibit proliferation of L1210 leukemia cells in vitro. Cells were exposed to drug for 2, 8, 24, and 48 hours; the results are summarized below:
Stock solutions of drugs were prepared in absolute ethanol, and serial dilutions of drug were prepared in ethanol. L1210 cells were suspended in Fisher's medium supplemented with 10% horse serum, 1% glutamine, and 1% antibiotic-antimycotic solution to give 10 mL volumes of cell suspension at a final density of 3-6×10^4 cells/mL. Appropriate volumes of the drug solution were transferred to the cell suspensions, and incubation was continued for 2, 8, 24, or 48 hours. The cells were spun down, resuspended in fresh drug-free medium and returned to the incubator. Final cell counts were determined 48 hours after the start of drug treatment. The data were analyzed by sigmoidal curve fit of cell count vs. Log (drug concentration) and the results expressed as the IC50 (the drug concentration that inhibits cell growth to 50% of control value).

pp60src SH2 domain = pp60src SH2 domain (Homo sapiens, UniProt P12931); test: Binding to pp60src SH2 domain; conditions: read-out: binding affinity
Chain of pp60src SH2 domain (P12931 151-248 limits assumed): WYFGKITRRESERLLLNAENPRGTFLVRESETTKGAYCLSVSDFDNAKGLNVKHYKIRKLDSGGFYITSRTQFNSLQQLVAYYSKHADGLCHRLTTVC
Source text: An alternate embodiment of the invention is illustrated in scheme 3: [drawing 3] This reaction is directed toward the synthesis of phosphoramidate 11A and involved the preparation of the nitrofuryl phosphoramidate of p-hydroxybenzoic acid 9A and coupling of this product with the benzyl amine 10A, prepared from 5-acetylsalicylamide. Briefly, to synthesize the benzoic acid derivative 9A, p-Hydroxybenzoic acid was converted to its allyl ester 6A by reaction of the potassium salt with allylbromide. The allyl ester was reacted with POCl3 and the intermediate phosphoryl dichloride was treated with methyl chlorobutylamine in the presence of triethylamine to give phosphoramidic chloride 7A. Reaction of 7A with the lithium salt of 5-nitro-2-hydroxymethylfuran afforded the phosphoramidate 8A. Deprotection of the allyl ester was accomplished by reaction with Pd(Ph3P)4/sodium p-toluenesulfinate to give the benzoic acid phosphoramidate 9A. Reaction of 9A with isobutyl chloroformate in the presence of triethylamine, followed by addition of benzylamine 10A afforded the desired peptidomimetic prodrug 11A. In order to confirm that the activation chemistry of 11A to 12A would proceed as expected, 11A was reduced with sodium dithionite in ethanol/aqueous buffer and the reaction monitored by ^31P nmr. […]

[1] = test system: luciferase expression in J77 cells transfected with NF-AT-Luciferase plasmid; test: Luciferase inhibition on transfected J77 cells; assay type: cell-based; conditions: read-out: IC50 luciferase inhibition
Method: J77 cells (2×10^7 cells in […] of FBS-free RPMI media) were transfected with […] of NF-AT-Luciferase plasmid. Cells were transferred to a flask with 10 mL of complete RPMI media and incubated for 24 hours. After this time cells were spun down, resuspended in 12 mL of complete RPMI media and divided into a 6-well well plate (2 mL/well). Drug stock solutions in DMSO were made and each well was treated with a different concentration and incubated for 2 hours. Each well was then treated with 10 mL of a mixture of 1.25 mg of PMA and 9 mg of Ionomycin in 115 mL of FBS-free RPMI, followed by the addition of 2 mg of Anti-CD3. Cells were incubated for 6 hours, spun down, washed with PBS, lysed for 15 min and centrifuged. Supernantant was collected and stored at −78° C. overnight. Luciferase activity was measured using a luminometer with a mixture of 50 mL of luciferase substrate and 10 ml of supernatant.

[2] = Chemical activation by sodium dithionite reduction monitored by 31P nmr; assay type: physicochemical; conditions: sodium dithionite in aqueous buffer/acetonitrile at 37° C.
[3] = Mus musculus, L1210, 2 h, read-out: L1210 IC50, drug exposure 2 hr, comparison of compound 5 with compound 3
[4] = Mus musculus, L1210, 8 h, read-out: L1210 IC50, drug exposure 8 hr, comparison of compound 5 with compound 3
[5] = Mus musculus, L1210, 24 h, read-out: L1210 IC50, drug exposure 24 hr, comparison of compound 5 with compound 3
[6] = Mus musculus, L1210, 48 h, drug exposure 48 h, final cell counts 48 hours after start of drug treatment
[7] = Mus musculus, L1210, 48 h, read-out: L1210 IC50, drug exposure 48 hr, comparison of compound 5 with compound 3
[8] = Mus musculus, L1210, drug exposure 2 h, final cell counts 48 hours after start of drug treatment
[9] = Mus musculus, L1210, drug exposure 8 h, final cell counts 48 hours after start of drug treatment
[10] = Mus musculus, L1210, drug exposure 24 h, final cell counts 48 hours after start of drug treatment

In the case of `CN(CCCCCl)P(=O)(OCc1ccc([N+](=O)[O-])o1)OC[C@H]1O[C@@H](n2cc(F)c(=O)[nH]c2=O)CC1O` (some centres unmarked) [Compound 3, 5-Fluoro-2′-deoxyuridyl 5-nitrofurfuryl N-methyl-N-(4-chlorobutyl)phosphoramidate], the IC50 (LM(TK-) cells) is reported as 1280 nM, the IC50 (L1210 cells; L1210, read-out: IC50 tritium assay) is reported as 46 nM and the IC50 (LM cells) is reported as 711 nM. For the same compound, the “inhibition of L1210 cell proliferation, in words” value (L1210 leukemia cells) was “significantly more potent than the analogous bromoethyl compound; also recorded: highly potent inhibitors”, the IC50 (L1210 leukemia cells; Mus musculus, L1210, 2 h, read-out: L1210 IC50, drug exposure 2 hr) was 112 nM and the IC50 (L1210 leukemia cells; [3]) was 116 nM. The IC50 (L1210 leukemia cells; Mus musculus, L1210, 8 h, read-out: L1210 IC50, drug exposure 8 hr) was 40 nM, the IC50 (L1210 leukemia cells; [4]) was 47 nM and the IC50 (L1210 leukemia cells; Mus musculus, L1210, 24 h, read-out: L1210 IC50, drug exposure 24 hr) was 6 nM. It also gave an IC50 (L1210 leukemia cells; [5]) of 7.2 nM, an IC50 (L1210 leukemia cells; [6]) of 2.3 nM and an IC50 (L1210 leukemia cells; Mus musculus, L1210, 48 h, read-out: L1210 IC50, drug exposure 48 hr) of 2 nM. The IC50 (L1210 leukemia cells; [7]) was 2.3 nM, the IC50 (L1210 leukemia cells; [8]) was 116 nM and the IC50 (L1210 leukemia cells; [9]) was 47 nM. For the same compound, the IC50 (L1210 leukemia cells; [10]) was 7.2 nM.

With `CN(CCCCCl)P(=O)(OCC1=CC(=O)c2ccccc2C1=O)OC[C@H]1O[C@@H](n2cc(F)c(=O)[nH]c2=O)CC1O` (some centres unmarked) [Compound 5, 5-Fluoro-2′-deoxyuridyl 2-(1,4-napthoquinonyl)methyl N-methyl-N-(4-chlorobutyl)phosphoramidate] the “inhibition of L1210 cell proliferation, in words” value (L1210 leukemia cells) was “highly potent inhibitors”, the “potency relative to compound 3” value (L1210 leukemia cells; L1210 cell proliferation) was “approximately 3 fold” and the IC50 (L1210 leukemia cells; [3]) was 44 nM. It also gave an IC50 (L1210 leukemia cells; [4]) of 16 nM, an IC50 (L1210 leukemia cells; [5]) of 3.1 nM and an IC50 (L1210 leukemia cells; [6]) of 0.63 nM. The IC50 (L1210 leukemia cells; [7]) was 0.63 nM, the IC50 (L1210 leukemia cells; [8]) was 44 nM and the IC50 (L1210 leukemia cells; [9]) was 16 nM. For the same compound, the IC50 (L1210 leukemia cells; [10]) was 3.1 nM.

`O=c1[nH]cc(F)c(=O)[nH]1` [Compound 5-FU, reference compound] gave an IC50 (L1210 leukemia cells; drug exposure 2 h, final cell counts 48 hours after start of drug treatment, read-out: IC50) of 2500 nM, an IC50 (L1210 leukemia cells; drug exposure 2 hr, comparison of compound 5 with compound 3, read-out: L1210 IC50) of 2500 nM and an IC50 (L1210 leukemia cells; drug exposure 2 hr, read-out: L1210 IC50) of 2740 nM. It also gave an IC50 (L1210 leukemia cells; drug exposure 8 h, final cell counts 48 hours after start of drug treatment, read-out: IC50) of 1010 nM, an IC50 (L1210 leukemia cells; drug exposure 8 hr, comparison of compound 5 with compound 3, read-out: L1210 IC50) of 1010 nM and an IC50 (L1210 leukemia cells; drug exposure 8 hr, read-out: L1210 IC50) of 1390 nM. The IC50 (L1210 leukemia cells; drug exposure 24 h, final cell counts 48 hours after start of drug treatment, read-out: IC50) was 360 nM, the IC50 (L1210 leukemia cells; drug exposure 24 hr, comparison of compound 5 with compound 3, read-out: L1210 IC50) was 360 nM and the IC50 (L1210 leukemia cells; drug exposure 24 hr, read-out: L1210 IC50) was 495 nM. It also gave an IC50 (L1210 leukemia cells; drug exposure 48 h, final cell counts 48 hours after start of drug treatment, read-out: IC50) of 200 nM, an IC50 (L1210 leukemia cells; drug exposure 48 hr, comparison of compound 5 with compound 3, read-out: L1210 IC50) of 200 nM and an IC50 (L1210 leukemia cells; drug exposure 48 hr, read-out: L1210 IC50) of 265 nM.

Work on `COC1=CC(=O)c2c(cc(COP(=O)(OCC3OC(n4cc(F)c(=O)[nH]c4=O)CC3O)N(C)CCCCCl)n2C)C1=O` (centres unmarked) [Compound 6, 5-Fluoro-2′-deoxyuridyl 2-(5-methoxy-N-methylindoloquinone)methyl N-methyl-N-(4-chlorobutyl)phosphoramidate] yielded an IC50 (L1210 leukemia cells; [6]) of 1.6 nM, an IC50 (L1210 leukemia cells; [8]) of 34 nM and an IC50 (L1210 leukemia cells; [9]) of 48 nM. The IC50 (L1210 leukemia cells; [10]) was 4.8 nM.

`CC(NC(=O)c1ccc(OP(=O)(O)O)cc1)c1ccc(OCC2CCCCC2)c(C(N)=O)c1` (centres unmarked) [Compound 12A] showed a Kd (pp60src SH2 domain) of 5600 nM.

`CC(NC(=O)c1ccc(OP(=O)(OCc2ccc([N+](=O)[O-])o2)N(C)CCCCCl)cc1)c1ccc(OCC2CCCCC2)c(C(N)=O)c1` (centres unmarked) [Compound 35] gave an IC50 [1] of 34100 nM.

For `CC(NC(=O)c1ccc(OP(=O)(OCC2=CC(=O)c3ccccc3C2=O)N(C)CCCCCl)cc1)c1ccc(OCC2CCCCC2)c(C(N)=O)c1` (centres unmarked) [Compound 37], the IC50 [1] was 4200 nM.

In the case of `CC(=O)NC(Cc1ccc(OP(=O)(OCc2ccc([N+](=O)[O-])o2)N(C)CCCCCl)cc1)C(=O)NC(C)c1ccc(OCC2CCCCC2)c(C(N)=O)c1` (centres unmarked) [Compound 38], the IC50 [1] is reported as 5600 nM.

Compound `CC(NC(=O)Cc1ccc(OP(=O)(OCc2ccc([N+](=O)[O-])o2)N(C)CCCCCl)cc1)c1ccc(OCC2CCCCC2)c(C(N)=O)c1` (centres unmarked) [Compound 40] has an IC50 [1] of 3400 nM.

Work on `CC(NC(=O)c1ccc(NP(=O)(OCc2ccc([N+](=O)[O-])o2)N(C)CCCCCl)cc1)c1ccc(OCC2CCCCC2)c(C(N)=O)c1` (centres unmarked) [Compound 42] yielded an IC50 ([1]; transfected J77 cells, drug 2 hours, then PMA/Ionomycin/Anti-CD3 for 6 hours) of 15000 nM.

Compound `O=c1[nH]c(=O)n([C@H]2C[C@H](O)[C@@H](CO)O2)cc1F` [FUdR, 5-Fluoro-2′-deoxyuridine, reference compound] has an IC50 (LM(TK-) cells; LM(TK-), drug 2 hours at 37° C., then [5-3H]dCyt 60 min) of 3670 nM, an IC50 (L1210 cells; L1210, drug 2 hours at 37° C., then [5-3H]dCyt 60 min, read-out: IC50 tritium assay) of 8 nM and an IC50 (LM cells; LM, drug 2 hours at 37° C., then [5-3H]dCyt 60 min) of 59 nM. It also gave an IC50 (L1210 leukemia cells; Mus musculus, L1210, 48 h, drug exposure 48 h, final cell counts 48 hours after start of drug treatment, read-out: IC50) of 0.64 nM, an IC50 (L1210 leukemia cells; Mus musculus, L1210, drug exposure 2 h, final cell counts 48 hours after start of drug treatment, read-out: IC50) of 45 nM and an IC50 (L1210 leukemia cells; Mus musculus, L1210, drug exposure 8 h, final cell counts 48 hours after start of drug treatment, read-out: IC50) of 23 nM. For the same compound, the IC50 (L1210 leukemia cells; Mus musculus, L1210, drug exposure 24 h, final cell counts 48 hours after start of drug treatment, read-out: IC50) was 4.1 nM.

For `Cc1cn([C@H]2C[C@H](O)[C@@H](COP(N)(=O)O)O2)c(=O)[nH]c1=O` [thymidine phosphoramidate], the “time until the phosphoramidate anion resonance had disappeared (thymidine-5′-phosphate exclusive product)” value [2] was “ten”.

Source: US6903081B2, “Phosphoramidates and methods therefor” (Purdue Research Foundation, priority 2000, dated 2005)
